In US6355409B1, “Tagatose as a cytoprotective supplement for the removal and/or storage of organs to reduce reperfusion injury” (Biospherics Incorporated, priority 2000, dated 2002):

Tests used:
[1] = system: organ, e.g., a liver; assay: Removal and/or storage of organ in tagatose-containing organ storage solution (Examples 1-3); design: species or system human; conditions: tagatose solution containing about 0.36% by weight of tagatose, with nutrients and electrolytes
Description: After the organ, e.g., a liver is accessed by surgery on a human subject, three liters of chilled tagatose solution containing about 0.36% by weight of tagatose are used to flush the blood from it and to cool the organ while still on the body. The tagatose solution contains the amounts of nutrients and electrolytes common to present day storage solutions, such as Viaspan. […] The organ is then removed and placed into a chilled sterile container, holding more of the tagatose solution, for refrigerated storage until the transplant occurs. The ischemia time is shorter in this procedure than in Example 1. The donor organ is removed and perfused with tagatose solution containing about 0.36% by weight of tagatose that, again, contains the requisite nutrients and electrolytes. The organ is then placed into a sterile container that contains more of the same tagatose solution. That sterile container is placed into two more sterile containers and is then placed on ice for immediate transit to the organ recipient. The organ is removed as described in Example 1. It is flushed and perfused with tagatose solution, containing about 0.36% by weight of tagatose, and containing the requisite nutrients and electrolytes. The organ is placed in a sterile container with more of the same tagatose solution. Two protocols may be used for storage a. […]

[2] = system: liver cells; assay: Exposure of organ cells to tagatose, ATP level; format: cell-based; conditions: exposure of organ cells such as liver cells to tagatose
[3] = high concentrations; cited from earlier work

Structure (SMILES) | reperfusion injury of the organ [1] | ATP in organ cells [2] | toxicity [3]
O=C(CO)[C@@H](O)[C@@H](O)[C@H](O)CO [tagatose] | reduces reperfusion injury | massively decreases ATP | –
CC(=O)N(O)CCCCCNC(=O)CCC(=O)N(O)CCCCCNC(=O)CCC(=O)N(O)CCCCCN [deferoxamine] | – | – | toxic at high concentrations
